We go through 1 molecule from publication PMC6478789, “A chemical toolbox for the study of bromodomains and epigenetic signaling” (Nature Communications, 2019).

One experiment concerns the target EP300 (Homo sapiens, UniProt Q09472). Kind of experiment: Histone acetyltransferase (HAT) activity assay. Format: biochemical. To be noted: read-out: HATs Activity (%).
In a further experiment the target is T1, HAT1 (Homo sapiens, UniProt O14929).
T1 sequence (O14929 1-419): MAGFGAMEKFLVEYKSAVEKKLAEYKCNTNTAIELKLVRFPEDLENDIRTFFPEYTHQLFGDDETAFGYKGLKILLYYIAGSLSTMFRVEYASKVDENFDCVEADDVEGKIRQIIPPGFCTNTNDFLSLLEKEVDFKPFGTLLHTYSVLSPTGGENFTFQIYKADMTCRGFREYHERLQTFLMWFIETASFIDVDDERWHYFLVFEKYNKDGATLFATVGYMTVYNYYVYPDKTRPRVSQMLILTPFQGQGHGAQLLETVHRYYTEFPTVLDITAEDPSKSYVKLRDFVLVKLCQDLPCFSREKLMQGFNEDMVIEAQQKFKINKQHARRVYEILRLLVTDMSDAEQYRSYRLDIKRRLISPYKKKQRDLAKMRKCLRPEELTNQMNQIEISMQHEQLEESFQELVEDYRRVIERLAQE
The experiment is described as follows: Histone acetyltransferase (HAT) activity assay. Format: biochemical. Conditions: read-out: HATs Activity (%).

A further experiment deals with T2, MYST1 (Homo sapiens, UniProt Q9H7Z6).
T2 sequence (Q9H7Z6 1-458): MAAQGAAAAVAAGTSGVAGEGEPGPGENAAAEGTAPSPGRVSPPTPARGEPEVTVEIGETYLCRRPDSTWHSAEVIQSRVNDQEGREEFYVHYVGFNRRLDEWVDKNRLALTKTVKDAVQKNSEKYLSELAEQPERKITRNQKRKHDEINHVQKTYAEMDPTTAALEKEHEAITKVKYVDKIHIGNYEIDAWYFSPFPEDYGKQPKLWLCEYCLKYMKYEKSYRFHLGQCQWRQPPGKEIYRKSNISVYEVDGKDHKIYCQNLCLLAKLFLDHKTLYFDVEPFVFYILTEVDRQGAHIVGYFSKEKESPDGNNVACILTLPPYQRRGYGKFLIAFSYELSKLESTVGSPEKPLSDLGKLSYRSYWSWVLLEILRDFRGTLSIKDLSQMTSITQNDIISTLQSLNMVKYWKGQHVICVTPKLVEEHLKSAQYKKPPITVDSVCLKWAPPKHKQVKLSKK
The experiment is described as follows: Histone acetyltransferase (HAT) activity assay. It counts as biochemical. Conditions: read-out: HATs Activity (%).

In a further experiment the target is MYST3 (Homo sapiens, UniProt Q92794). Kind of experiment: Histone acetyltransferase (HAT) activity assay. Conditions: read-out: HATs Activity (%). It counts as biochemical.
Chain of MYST3 (Q92794 whole entry, species assumed): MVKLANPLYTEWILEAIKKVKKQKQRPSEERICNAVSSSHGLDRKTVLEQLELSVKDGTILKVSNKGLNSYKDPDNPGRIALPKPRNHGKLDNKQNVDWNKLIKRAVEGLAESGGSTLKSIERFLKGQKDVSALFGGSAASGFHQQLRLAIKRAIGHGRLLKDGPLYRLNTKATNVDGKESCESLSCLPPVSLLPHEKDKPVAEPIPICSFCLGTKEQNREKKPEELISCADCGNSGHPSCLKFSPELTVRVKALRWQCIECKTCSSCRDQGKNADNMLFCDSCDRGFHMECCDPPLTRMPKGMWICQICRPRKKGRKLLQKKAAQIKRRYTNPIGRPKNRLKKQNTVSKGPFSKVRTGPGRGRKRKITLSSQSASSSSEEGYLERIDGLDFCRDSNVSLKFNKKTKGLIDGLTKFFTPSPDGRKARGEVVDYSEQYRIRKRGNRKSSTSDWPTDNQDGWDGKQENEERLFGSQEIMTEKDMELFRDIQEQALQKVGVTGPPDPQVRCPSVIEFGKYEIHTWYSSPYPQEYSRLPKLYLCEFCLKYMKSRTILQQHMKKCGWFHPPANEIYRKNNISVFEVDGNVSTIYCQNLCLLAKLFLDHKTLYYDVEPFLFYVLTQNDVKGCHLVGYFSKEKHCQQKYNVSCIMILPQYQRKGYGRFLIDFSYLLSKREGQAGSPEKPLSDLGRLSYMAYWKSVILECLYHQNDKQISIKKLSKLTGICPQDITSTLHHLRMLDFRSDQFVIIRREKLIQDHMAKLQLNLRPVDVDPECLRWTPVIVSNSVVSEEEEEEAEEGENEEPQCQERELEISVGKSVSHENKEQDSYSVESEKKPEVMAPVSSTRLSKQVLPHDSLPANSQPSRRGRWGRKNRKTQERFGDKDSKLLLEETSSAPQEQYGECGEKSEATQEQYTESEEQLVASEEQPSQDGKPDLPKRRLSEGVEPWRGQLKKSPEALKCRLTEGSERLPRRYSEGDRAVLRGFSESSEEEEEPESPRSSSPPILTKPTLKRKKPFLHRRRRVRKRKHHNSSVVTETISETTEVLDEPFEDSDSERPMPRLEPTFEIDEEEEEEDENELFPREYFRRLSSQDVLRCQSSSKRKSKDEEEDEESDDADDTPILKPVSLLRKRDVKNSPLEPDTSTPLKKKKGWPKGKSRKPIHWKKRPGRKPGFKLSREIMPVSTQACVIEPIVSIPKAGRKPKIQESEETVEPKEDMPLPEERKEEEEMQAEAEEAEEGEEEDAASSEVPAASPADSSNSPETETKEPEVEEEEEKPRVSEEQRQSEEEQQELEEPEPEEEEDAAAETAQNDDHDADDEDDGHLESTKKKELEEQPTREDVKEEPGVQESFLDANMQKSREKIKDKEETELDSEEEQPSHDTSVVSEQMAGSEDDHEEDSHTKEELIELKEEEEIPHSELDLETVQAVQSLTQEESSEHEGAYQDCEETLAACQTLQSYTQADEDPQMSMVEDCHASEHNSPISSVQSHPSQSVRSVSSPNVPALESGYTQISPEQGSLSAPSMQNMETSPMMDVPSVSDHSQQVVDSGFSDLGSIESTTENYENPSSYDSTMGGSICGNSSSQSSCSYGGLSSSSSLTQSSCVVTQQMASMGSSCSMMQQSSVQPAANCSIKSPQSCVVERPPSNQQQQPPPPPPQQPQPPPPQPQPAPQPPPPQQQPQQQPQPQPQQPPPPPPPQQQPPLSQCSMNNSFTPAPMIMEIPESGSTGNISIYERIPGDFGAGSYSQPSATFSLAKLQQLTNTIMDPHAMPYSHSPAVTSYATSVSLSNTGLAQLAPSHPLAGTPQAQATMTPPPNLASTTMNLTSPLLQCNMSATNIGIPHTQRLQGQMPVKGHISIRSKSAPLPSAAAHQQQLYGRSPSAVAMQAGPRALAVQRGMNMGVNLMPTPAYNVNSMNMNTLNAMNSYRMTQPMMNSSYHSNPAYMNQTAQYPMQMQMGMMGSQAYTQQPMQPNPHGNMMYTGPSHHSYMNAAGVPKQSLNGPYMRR
The target of another experiment is GCN5L2 (Homo sapiens, UniProt Q92830). The experiment is described as follows: Histone acetyltransferase (HAT) activity assay. Format: biochemical. Conditions: read-out: HATs Activity (%).
The next experiment deals with C2C12 myoblast cells. The experiment is described as follows: Gene-expression analysis (microarray). Format: cell-based, mouse. To be noted: 12 h; 500 nM (JQ1, LP-99), 2 μM (GSK2801, BAZ2-ICR, BSP). The method, then: Total RNA was extracted using the PureLink^TM RNA mini kit (Thermo Fisher Scientific, 12183018A) as per the manufacturer’s protocol.
RNA samples were processed for oligonucleotide microarray profiling utilizing the Affymetrix Clariom^TM S Assay HT mouse. Quality controls were carried out in R (v.3.5.1) and Bioconductor[71] (v.3.7) using the arrayQualityMetrics package (v.3.36.0) taking into account array intensity distributions, distance between arrays, and variance mean dependence. Principal component analysis was used to decide which arrays to process together. After quality control, arrays were corrected for background, normalized, and log2-transformed together using the rma function of the oligo package (v.1.44)[73] in R/Bioconductor. Probes with small variance across samples were filtered out using the genefilter (v.1.62) package, employing the nsFilter function and an interquartile range cut-off of 0.28 (or >log(1.2), determined by the midpoint of the shortest interval containing half of the data). This reduced the number of probes of the Clariom^TM S array from 29,129 to 14,538.
Differential expression analysis was conducted using the limma package (v.3.36.2)[74], employing a linear model followed by empirical Bayesian analysis to determine differential expression between not-treated and treated samples.

Another experiment relates to ten TNBC cell lines. The experiment is described as follows: High-throughput screening of bromodomain inhibitors in TNBC panel (confluency). Format: cell-based, human. To be noted: 3 μM, 7 days. The method, then:
Fig. 6 BRD inhibitors leverage metabolic adaptations induced by glucose transporter I (GLUT1) inhibition in TNBC. a BRD inhibitor screening across ten TNBC cell lines. Cells were treated with indicated BRD inhibitors at 3 μM for 7 days. Confluency was measured using an IncuCyte ZOOM live cell imaging device. Data shown are mean ± s.d. of n = 4 independent cell culture grown and treated cells. A two-sided Student’s t test was used to derive the p-values. b SLC2A1 gene expression in the The Cancer Genome Atlas (TCGA) breast datasets. The cohorts were divided into TNBCs (red) and non-TNBCs (blue) according to PAM50 classification. Gene expression is reported as median-centered expression log2 values. The number of patients (n) per group is indicated. P-values were determined using a Wilcoxon's rank-sum test. c Glucose uptake in MDA-MB-436 cells in response to BAY-876 treatment relative to vehicle. MDA-MB-436 cells were treated with dimethyl sulfoxide (DMSO) or 3 µM BAY-876 for 5 days. […]
TNBC cell lines were seeded in sterile, transparent 384-well plates at 500 cells per well in 50 µl media. […] Cell confluency at 7 days was evaluated using an Incucyte ZOOM live cell imaging device (Essen Bioscence) and analyzed with the Incucyte ZOOM (2016A) software based on phase contrast image.

The subject of a further experiment is three TNBC lines. Kind of experiment: Combinatorial screen of BRD inhibitors with or without BAY-876 (confluency). It counts as cell-based, human. To be noted: 3 μM probe + 3 μM BAY-876. As for the experimental part: Fig. 6 BRD inhibitors leverage metabolic adaptations induced by glucose transporter I (GLUT1) inhibition in TNBC. a BRD inhibitor screening across ten TNBC cell lines. Cells were treated with indicated BRD inhibitors at 3 μM for 7 days. Confluency was measured using an IncuCyte ZOOM live cell imaging device. Data shown are mean ± s.d. of n = 4 independent cell culture grown and treated cells. A two-sided Student’s t test was used to derive the p-values. b SLC2A1 gene expression in the The Cancer Genome Atlas (TCGA) breast datasets. The cohorts were divided into TNBCs (red) and non-TNBCs (blue) according to PAM50 classification. Gene expression is reported as median-centered expression log2 values. The number of patients (n) per group is indicated. P-values were determined using a Wilcoxon's rank-sum test. c Glucose uptake in MDA-MB-436 cells in response to BAY-876 treatment relative to vehicle. MDA-MB-436 cells were treated with dimethyl sulfoxide (DMSO) or 3 µM BAY-876 for 5 days. Graph indicates mean, error bars denote s.d. from three independent assays and p-value was computed using the Benjamini-Hochberg t test; ***p < 0.001. d Effects of BAY-876 treatment on the intracellular acetyl-CoA level. Graph indicates mean, error bars denote s.d. from three independent assays and p-value was computed using the Benjamini-Hochberg t test; ***p < 0.001. e Effects of BAY-876 treatment on intracellular NAD^+/NADH level. Graph indicates the mean, error bars denote s.d. from three independent assays and p-value computed using the Benjamini-Hochberg t test; **p < 0.01. f Immunoblot analysis of H3 and H4 acetylation in MDA-MB-436 cells before and after BAY-876 treatment. P-value computed using the Benjamini-Hochberg t test; ***p < 0.001. g Cell growth effects of BAY-876 treatment on three representative cell lines. n.s. not significant. h Combinatorial screening of BRD inhibitors with or without 3 μM BAY-876 across ten TNBC cell lines. Cell confluency was obtained from the endpoint Incucyte scanning. (Left) Heatmap of the combinatorial screening results; (Right) Cell confluency after treatment with three potential BRDi candidates at 3 μM in the presence or absence of 3 μM BAY-876 in three representative cell lines. Graph indicates mean, error bars denote s.d. from three independent assays and p-values were computed using the Benjamini-Hochberg t test; **p < 0.01; ***p < 0.001. Raw data images are available in Supplementary Fig. 4
TNBC cell lines were seeded in sterile, transparent 384-well plates at 500 cells per well in 50 µl media. Chemical probes were delivered in dimethyl sulfoxide (DMSO). Cell confluency at 7 days was evaluated using an Incucyte ZOOM live cell imaging device (Essen Bioscence) and analyzed with the Incucyte ZOOM (2016A) software based on phase contrast image.

Experiment [1] relates to BT-549 and MDA-MB436 cell lines. Kind of experiment: JQ1 dose-response with or without BAY-876. It counts as cell-based, human. To be noted: with or without 3 μM BAY-876, 7 days.
Experimental: and error bars denote standard deviation from three independent assays. p value computed using a one-way ANOVA test; ****** p<0.001. e) The colony formation of indicated cells with 3μM indicated chemical probes treatment for 14 days. f) MDA-MB436 cells were treated with 3μM indicated chemical probes for 5 days. Cell apoptotic activity was quantified by the fluorescent caspase 3/7 active objects. Graph indicate mean and error bars denote standard deviation from four independent assays. p value computed using one-way ANOVA t test; ****
Graph indicate mean and error bars denote standard deviation from four independent assays. p value computed using a two- stage step-up Benjamini t test i) Dose dependent
Graph indicate mean and error bars denote standard deviation from four independent assay s. p value computed using a two - stage step -up Benjamini t test j) Immunoblot based quantification of H3K14ac abundance using total H3 as a control in MDA-MB-436 cells following control or 3 μM of the indicated chemical probes during a 5-day treatment. Graph indicate mean and error bars denote standard deviation from three independent assays. p value computed using a two-stage step-up Benjamini t test; **p<0.01; *** p<0.001. k) Immunoblot based quantification of H3K14ac abundance using total […]

Chain of EP300 (Q09472 whole entry, species assumed): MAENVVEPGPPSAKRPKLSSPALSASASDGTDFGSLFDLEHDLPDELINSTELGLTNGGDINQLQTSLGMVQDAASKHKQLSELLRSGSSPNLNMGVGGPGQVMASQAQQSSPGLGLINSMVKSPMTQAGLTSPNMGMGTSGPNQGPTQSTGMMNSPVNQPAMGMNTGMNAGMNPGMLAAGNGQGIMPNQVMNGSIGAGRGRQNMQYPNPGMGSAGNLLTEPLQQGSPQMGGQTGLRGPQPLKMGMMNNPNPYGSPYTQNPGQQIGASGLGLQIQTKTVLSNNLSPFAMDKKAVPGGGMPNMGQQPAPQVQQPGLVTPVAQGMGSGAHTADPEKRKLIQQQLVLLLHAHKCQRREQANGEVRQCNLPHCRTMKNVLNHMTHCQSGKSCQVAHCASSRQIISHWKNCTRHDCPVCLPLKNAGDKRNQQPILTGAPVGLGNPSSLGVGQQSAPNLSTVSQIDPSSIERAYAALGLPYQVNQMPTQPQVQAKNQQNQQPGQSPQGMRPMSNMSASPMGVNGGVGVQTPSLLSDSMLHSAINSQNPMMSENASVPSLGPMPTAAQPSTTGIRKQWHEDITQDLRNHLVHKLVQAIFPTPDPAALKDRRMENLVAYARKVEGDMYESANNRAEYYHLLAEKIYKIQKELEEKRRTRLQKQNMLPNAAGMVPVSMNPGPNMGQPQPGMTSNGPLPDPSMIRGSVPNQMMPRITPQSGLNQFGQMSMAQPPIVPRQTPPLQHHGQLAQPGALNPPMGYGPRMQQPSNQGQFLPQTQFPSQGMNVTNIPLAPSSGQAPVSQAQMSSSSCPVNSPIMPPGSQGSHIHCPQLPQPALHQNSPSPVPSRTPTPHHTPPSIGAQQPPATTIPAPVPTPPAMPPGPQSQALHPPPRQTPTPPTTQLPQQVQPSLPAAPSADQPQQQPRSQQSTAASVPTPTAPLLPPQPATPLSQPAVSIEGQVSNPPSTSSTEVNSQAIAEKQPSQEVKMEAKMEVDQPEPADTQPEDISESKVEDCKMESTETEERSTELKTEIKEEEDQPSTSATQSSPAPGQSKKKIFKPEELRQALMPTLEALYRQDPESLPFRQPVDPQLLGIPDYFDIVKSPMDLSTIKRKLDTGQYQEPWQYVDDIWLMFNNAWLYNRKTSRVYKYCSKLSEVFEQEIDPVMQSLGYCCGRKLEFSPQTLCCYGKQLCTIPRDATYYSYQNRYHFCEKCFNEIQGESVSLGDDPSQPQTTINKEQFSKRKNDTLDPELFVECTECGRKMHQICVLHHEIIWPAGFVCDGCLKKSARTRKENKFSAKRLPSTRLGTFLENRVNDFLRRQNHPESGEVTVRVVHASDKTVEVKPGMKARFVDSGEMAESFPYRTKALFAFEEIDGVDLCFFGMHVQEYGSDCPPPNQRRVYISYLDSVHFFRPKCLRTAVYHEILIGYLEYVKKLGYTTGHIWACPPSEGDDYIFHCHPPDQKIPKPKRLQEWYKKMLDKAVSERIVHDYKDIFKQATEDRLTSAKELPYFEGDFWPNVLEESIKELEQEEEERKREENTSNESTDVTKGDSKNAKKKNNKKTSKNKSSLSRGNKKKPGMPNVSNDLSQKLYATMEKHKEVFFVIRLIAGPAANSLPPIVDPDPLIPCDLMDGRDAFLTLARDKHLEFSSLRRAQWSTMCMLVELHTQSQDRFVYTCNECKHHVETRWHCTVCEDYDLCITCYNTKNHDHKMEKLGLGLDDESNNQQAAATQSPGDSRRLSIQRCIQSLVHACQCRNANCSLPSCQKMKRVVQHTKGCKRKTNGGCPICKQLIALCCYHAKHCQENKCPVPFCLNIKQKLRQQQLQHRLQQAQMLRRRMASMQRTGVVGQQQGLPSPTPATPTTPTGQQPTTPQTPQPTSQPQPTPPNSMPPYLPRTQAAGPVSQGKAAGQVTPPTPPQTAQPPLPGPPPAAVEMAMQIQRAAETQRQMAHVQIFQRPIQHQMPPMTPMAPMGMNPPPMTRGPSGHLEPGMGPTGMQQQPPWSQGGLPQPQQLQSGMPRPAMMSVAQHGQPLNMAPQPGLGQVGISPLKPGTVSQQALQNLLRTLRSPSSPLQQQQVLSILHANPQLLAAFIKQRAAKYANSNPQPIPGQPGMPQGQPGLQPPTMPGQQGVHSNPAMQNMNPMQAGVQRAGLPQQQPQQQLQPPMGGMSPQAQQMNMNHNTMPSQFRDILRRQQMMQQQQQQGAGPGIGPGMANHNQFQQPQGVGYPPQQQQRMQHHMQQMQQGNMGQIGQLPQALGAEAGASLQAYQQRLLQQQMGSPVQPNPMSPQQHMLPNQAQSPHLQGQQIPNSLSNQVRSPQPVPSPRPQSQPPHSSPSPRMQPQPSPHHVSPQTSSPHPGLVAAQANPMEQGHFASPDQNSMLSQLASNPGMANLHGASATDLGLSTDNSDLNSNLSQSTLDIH

In the case of `Cc1sc2c(c1C)C(c1ccc(Cl)cc1)=NC(CC(=O)OC(C)(C)C)c1nnc(C)n1-2` (centres unmarked) [JQ1], the activity at 1 µM on EP300 worked out at 99%; on HAT1 it was 98%; at MYST1 it was 99%; at MYST3, 108%; on GCN5L2, 104%. Also, the activity at 10 µM at EP300 stood at 102%; on HAT1, 103%; on MYST1 it was 95%; on MYST3, 100%; on GCN5L2, 98%. The “changes in gene-expression levels” value in the experiment on C2C12 myoblast cells is listed as “significant changes in gene-expression levels”. For the same molecule, in the experiment on ten TNBC cell lines, the “anti-proliferative effect (confluency)” value was “strong anti-proliferative effects”. In addition, the “combination effect with BAY-876 across the three cell lines” value with three TNBC lines is on record as “efficacy in only one of the three tested TNBC lines”. For the same molecule, the “synergy with BAY-876” value in experiment [1] is “no significant synergistic effect”.
